Where two headings read alike, the source gives them in different places.
Legend:
229E = 229E MRC5 CPE assay (cytopathic experiment); type: cell-based, coronavirus 229E (HCoV-229E)
OC43 = OC43 Huh7 CPE assay (cytopathic experiment); type: cell-based, coronavirus OC43 (HCoV-OC43); details: for EC50: read-out: OC43 Huh7 CPE assay (μM) EC50; for EC90: read-out: OC43 Huh7 CPE assay (μM) EC90
Outline: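 Cells seeded overnight, then two-fold diluted compound added with virus; viability read by CellTiter-Glo after 3 days (229E, MRC5 cells) or 7 days (OC43, Huh7 cells). EC50/EC90 from % inhibition of virus-induced CPE; CC50 from parallel uninfected cytotoxicity runs, by nonlinear fitting.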

[1] = Human coronavirus 229E, MRC5, 72 h, read-out: 229E MRC5 CPE assay (μM) EC50
[2] = Human coronavirus 229E, MRC5, 72 h, read-out: 229E MRC5 CPE assay (μM) EC90
[3] = Betacoronavirus 1, OC43, Huh-7, 168 h
[4] = Human coronavirus 229E, MRC5, 72 h; read-out: 229E MRC5 CPE assay (μM) EC50
[5] = Human coronavirus 229E, MRC5, 72 h; read-out: 229E MRC5 CPE assay (μM) EC90
[6] = Betacoronavirus 1, Huh-7, 168 h, Huh7 cells, OC43 virus, 7 days, Cell Titer Glo

Row | Structure (SMILES) | EC50 (229E; [1]) | EC90 (229E; [2]) | EC50 (OC43; [3]) | EC90 (OC43; [3]) | EC50 (229E; [4]) | EC90 (229E; [5]) | EC50 (OC43; [6]) | EC90 (OC43; [6])
1 | CCCCOC(=O)[C@H](Cc1ccccc1)N[P@@](=O)(OCOC(=O)C(CCC)CCC)OC[C@H]1O[C@@](C#N)(c2ccc3c(N)ncnn23)[C@H](O)[C@@H]1O [Compound 138] | < 0.1 µM | 0.1 to 0.5 µM | < 0.1 µM | < 0.1 µM |  |  |  | 
2 | CCCC(CCC)C(=O)OCO[P@]1(=S)OC[C@H]2O[C@@](C#N)(c3ccc4c(N)ncnn34)[C@H](O)[C@@H]2O1 [Compound 143] |  |  | > 0.5 µM | > 0.5 µM | > 0.5 µM | > 0.5 µM |  | 
3 | CC(C)OC(=O)OCO[P@@]1(=O)OC[C@H]2O[C@@](C#N)(c3ccc4c(N)ncnn34)[C@H](O)[C@@H]2O1 [Compound 145] | < 0.1 µM | 0.1 to 0.5 µM | 0.1 to 0.5 µM | 0.1 to 0.5 µM |  |  |  | 
4 | CCC(CC)COC(=O)[C@H](C)N[P@](=O)(OC[C@H]1O[C@@](C#N)(c2ccc3c(N)ncnn23)[C@H](O)[C@@H]1O)Oc1ccc(Nc2ccnc3cc(Cl)ccc23)cc1CN(CC)CC [Compound 062] |  |  |  |  | > 0.5 µM | > 0.5 µM | > 0.5 µM | > 0.5 µM
5 | [2H]c1cc([C@]2(C#N)O[C@@H]3CO[P@@](=O)(OCC)O[C@H]3[C@H]2O)n2ncnc(N)c12 [Compound 233] |  |  |  |  | > 0.5 µM | > 0.5 µM | > 0.5 µM | > 0.5 µM
6 | CC(C)OC(=O)CO[P@@]1(=O)OC[C@H]2O[C@@](C#N)(c3ccc4c(N)ncnn34)[C@H](O)[C@@H]2O1 [Compound 147] | > 0.5 µM | > 0.5 µM | > 0.5 µM | > 0.5 µM |  |  |  | 
7 | CCO[P@@]1(=O)OC[C@H]2O[C@@](C#N)(c3ccc4c(N)ncnn34)[C@H](O)[C@@H]2O1 [Compound 230] |  |  |  |  | > 0.5 µM | > 0.5 µM | > 0.5 µM | > 0.5 µM
8 | CCC(CC)COC(=O)[C@H](C)NP(=O)(OC[C@H]1O[C@@](C#N)(c2ccc3c(N)ncnn23)[C@H](O)[C@@H]1O)Oc1ccc(N)cc1C(=O)O (stereo partly shown) [Compound 107] |  |  |  |  | > 0.5 µM | > 0.5 µM | > 0.5 µM | > 0.5 µM
9 | CCCC(CCC)C(=O)OCO[P@](=O)(N[C@@H](Cc1ccccc1)C(=O)OCC(CC)CC)OC[C@H]1O[C@@](C#N)(c2ccc3c(N)ncnn23)[C@H](O)[C@@H]1O [Compound 139] | < 0.1 µM | 0.1 to 0.5 µM | < 0.1 µM | < 0.1 µM |  |  |  | 
10 | CCCN(CCC)S(=O)(=O)c1ccc(C(=O)OCO[P@]2(=O)OCC3O[C@@](C#N)(c4ccc5c(N)ncnn45)[C@H](O)[C@@H]3O2)cc1 (stereo partly shown) [Compound 157] | 0.1 to 0.5 µM | > 0.5 µM | > 0.5 µM | > 0.5 µM |  |  |  | 
11 | CCC(CC)COC(=O)[C@H](C)N[P@]1(=O)OC[C@H]2O[C@@](C#N)(c3ccc4c(N)ncnn34)[C@H](O)[C@@H]2O1 [Compound 126] | < 0.1 µM | 0.1 to 0.5 µM | < 0.1 µM | 0.1 to 0.5 µM |  |  |  | 
12 | CCC(CC)COC(=O)[C@H](C)N[P@@](=O)(OCOC(=O)C(C)(C)C)OC[C@H]1O[C@@](C#N)(c2ccc3c(N)ncnn23)[C@H](O)[C@@H]1O [Compound 192] | 0.1 to 0.5 µM | > 0.5 µM | 0.1 to 0.5 µM | > 0.5 µM |  |  |  | 
13 | CC(C)(C)C(=O)OCO[P@]1(=O)OCC2O[C@@](C#N)(c3ccc4c(N)ncnn34)[C@H](O)[C@@H]2O1 (stereo partly shown) [Compound 198] | 0.1 to 0.5 µM | > 0.5 µM | > 0.5 µM | > 0.5 µM |  |  |  | 
14 | N#C[C@@]1(c2ccc3c(N)ncnn23)O[C@@H]2CO[P@@](=O)(OCOC(=O)CCCc3ccccc3)O[C@H]2[C@H]1O [Compound 264] | < 0.1 µM | 0.1 to 0.5 µM | > 0.5 µM | > 0.5 µM |  |  |  | 
15 | CC(C)OC(=O)C(C)(C)N[P@@](=O)(OCOC(=O)C1CCCC1)OC[C@H]1O[C@@](C#N)(c2ccc3c(N)ncnn23)[C@H](O)[C@@H]1O [Compound 267] | > 0.5 µM | > 0.5 µM | > 0.5 µM | > 0.5 µM |  |  |  | 
16 | N#C[C@@]1(c2ccc3c(N)ncnn23)OC2CO[P@@](=O)(OCOC(=O)c3cccnc3)O[C@H]2[C@H]1O (stereo partly shown) [Compound 180] | > 0.5 µM | > 0.5 µM | > 0.5 µM | > 0.5 µM |  |  |  | 
